Reference: the supplement of paper PMC10307832

Key:
Test in all cases: relative viability (nuclei count vs DMSO), 5 days (fraction); higher = more cells survive
Cediranib + OSI-027 = compound: COc1cc2c(Oc3ccc4[nH]c(C)cc4c3F)ncnc2cc1OCCCN1CCCC1 [Cediranib] + COc1cccc2cc(-c3nc([C@H]4CC[C@H](C(=O)O)CC4)n4ncnc(N)c34)[nH]c12 [OSI-027] (partner 0.5 µM)
How it was run: (§1)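 Relative viability was taken as the ratio of nuclei in treated wells to nuclei in vehicle wells. Lung cancer cell lines in 1536-well plates received compounds by pin tool one day after seeding, either one drug alone or a fixed anchor-drug dose plus five library-drug doses (not always all listed) in √10 steps. Nuclei were counted on 4× images after 5 days of treatment, and values are medians of duplicate plates.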

Halofuginone + Dasatinib = compound: O=C(C[C@H]1NCCC[C@@H]1O)Cn1cnc2cc(Br)c(Cl)cc2c1=O (racemic) [Halofuginone] + Cc1nc(Nc2ncc(C(=O)Nc3c(C)cccc3Cl)s2)cc(N2CCN(CCO)CC2)n1 [Dasatinib] (partner 0.075 µM)
How it was run: as §1

Halofuginone + AZD7762 = compound: O=C(C[C@H]1NCCC[C@@H]1O)Cn1cnc2cc(Br)c(Cl)cc2c1=O (racemic) [Halofuginone] + NC(=O)Nc1cc(-c2cccc(F)c2)sc1C(=O)N[C@H]1CCCNC1 [AZD7762] (partner 0.2 µM)
How it was run: as §1

[1] = compound: O=C(C[C@H]1NCCC[C@@H]1O)Cn1cnc2cc(Br)c(Cl)cc2c1=O (racemic) [Halofuginone] + CC(=O)Nc1cccc(-n2c(=O)n(C3CC3)c(=O)c3c(Nc4ccc(I)cc4F)n(C)c(=O)c(C)c32)c1 [Trametinib] (partner 0.02 µM)
How it was run: as §1

Row | Cell Line | relative viability (Cediranib + OSI-027; first compound 0.04 µM) | relative viability (Cediranib + OSI-027; first compound 0.1265 µM) | relative viability (Cediranib + OSI-027; first compound 0.4 µM) | relative viability (Cediranib + OSI-027; first compound 1.265 µM) | relative viability (Cediranib + OSI-027; first compound 4 µM) | relative viability (Halofuginone + Dasatinib; first compound 0.001 µM) | relative viability (Halofuginone + Dasatinib; first compound 0.003162 µM) | relative viability (Halofuginone + Dasatinib; first compound 0.01 µM) | relative viability (Halofuginone + Dasatinib; first compound 0.03162 µM) | relative viability (Halofuginone + Dasatinib; first compound 0.1 µM) | relative viability (Halofuginone + AZD7762; first compound 0.001 µM) | relative viability (Halofuginone + AZD7762; first compound 0.003162 µM) | relative viability (Halofuginone + AZD7762; first compound 0.01 µM) | relative viability (Halofuginone + AZD7762; first compound 0.03162 µM) | relative viability (Halofuginone + AZD7762; first compound 0.1 µM) | relative viability ([1]; first compound 0.001 µM) | relative viability ([1]; first compound 0.003162 µM) | relative viability ([1]; first compound 0.01 µM) | relative viability ([1]; first compound 0.03162 µM) | relative viability ([1]; first compound 0.1 µM)
1 | NCI-H1395 | 0.628 | 0.751 | 0.62 | 0.615 | 0.608 | 0.425 | 0.469 | 0.426 | 0.364 | 0.366 | 0.385 | 0.39 | 0.372 | 0.385 | 0.41 | 0.95 | 1.03 | 0.912 | 0.889 | 0.746
2 | NCI-H1437 | 0.841 | 0.992 | 0.796 | 0.851 | 1.02 | 0.377 | 0.445 | 0.431 | 0.364 | 0.285 | 1.11 | 1.08 | 1.07 | 1.17 | 1.11 | 0.548 | 0.553 | 0.558 | 0.481 | 0.387
3 | NCI-H1651 | 0.59 | 0.652 | 0.721 | 0.606 | 0.778 | 0.526 | 0.494 | 0.377 | 0.258 | 0.162 | 0.485 | 0.487 | 0.476 | 0.457 | 0.466 | 0.8 | 0.853 | 0.804 | 0.819 | 0.806
4 | NCI-H1666 | 0.9 | 0.809 | 0.891 | 0.802 | 0.805 | 0.812 | 0.802 | 0.753 | 0.766 | 0.664 | 0.811 | 0.711 | 0.84 | 0.841 | 0.956 | 0.944 | 0.852 | 0.79 | 0.865 | 0.68
5 | NCI-H1734 | 0.517 | 0.705 | 0.583 | 0.515 | 0.64 | 0.52 | 0.558 | 0.436 | 0.449 | 0.293 | 0.558 | 0.619 | 0.52 | 0.576 | 0.269 | 0.68 | 0.721 | 0.733 | 0.602 | 0.171
6 | NCI-H1755 | 0.601 | 0.565 | 0.689 | 0.694 | 0.81 | 0.514 | 0.435 | 0.465 | 0.422 | 0.291 | 0.442 | 0.407 | 0.469 | 0.399 | 0.303 | 0.793 | 0.786 | 0.745 | 0.774 | 0.765
7 | NCI-H1792 | 0.731 | 0.732 | 0.661 | 0.76 | 0.757 | 0.973 | 0.791 | 0.844 | 0.76 | 0.607 | 0.684 | 0.722 | 0.585 | 0.541 | 0.234 | 0.402 | 0.469 | 0.51 | 0.522 | 0.18
8 | NCI-H1793 | 0.271 | 0.276 | 0.245 |  | 0.301 | 0.374 | 0.37 | 0.418 | 0.468 | 0.296 | 0.461 | 0.593 | 0.508 | 0.394 | 0.549 | 0.483 | 0.524 | 0.363 | 0.503 | 0.327
9 | NCI-H1915 | 0.559 | 0.516 | 0.566 | 0.624 | 0.669 | 0.308 | 0.332 | 0.322 | 0.294 | 0.23 | 0.7 | 0.682 | 0.736 | 0.656 | 0.68 | 0.319 | 0.291 | 0.28 | 0.297 | 0.262
10 | NCI-H1944 | 0.382 | 0.513 | 0.422 | 0.39 | 0.429 | 0.229 | 0.236 | 0.209 | 0.207 | 0.155 | 0.524 | 0.446 | 0.544 | 0.669 | 0.381 | 0.394 | 0.437 | 0.417 | 0.43 | 0.355
11 | NCI-H1975 | 0.691 | 0.773 | 0.686 | 0.638 | 0.801 | 0.375 | 0.324 | 0.348 | 0.231 | 0.117 | 0.737 | 0.792 | 0.666 | 0.644 | 0.402 | 0.448 | 0.317 | 0.361 | 0.298 | 0.157
12 | NCI-H1993 | 0.421 | 0.579 | 0.548 | 0.506 | 0.545 | 0.619 | 0.558 | 0.562 | 0.532 | 0.434 | 0.733 | 0.421 | 0.787 | 1.11 | 0.586 | 0.502 | 0.505 | 0.597 | 0.505 | 0.485
13 | NCI-H2085 | 0.801 | 0.786 | 0.759 | 0.48 | 0.856 | 0.252 | 0.226 | 0.259 | 0.269 | 0.237 | 0.996 | 1.02 | 0.947 | 0.992 | 0.932 | 0.541 | 0.512 | 0.525 | 0.585 | 0.349
